Experimental data reported in patent publication US11420958B2, “Aryl and heteroaryl substituted indole compounds” (BRISTOL-MYERS SQUIBB COMPANY, priority 2017, dated 2022).

Key:
Format in all cases: cell-based
[1] = target: human TLR7 (Homo sapiens (Human), UniProt Q9NYK1); assay: TLR7 inhibition reporter assay (HEK-Blue, SEAP); details: HEK-Blue cells overexpressing human TLR7, gardiquimod 7.5 μM stimulation
Method: (§1) TLR7/8/9 Inhibition Reporter Assays
(§2) HEK-Blue™-cells (Invivogen) overexpressing human TLR7, TLR8 or TLR9 receptors were used for screening inhibitors of these receptors using an inducible SEAP (secreted embryonic alkaline phosphatase) reporter gene under the control of the IFN-β minimal promoter fused to five NF-κc Band AP-1-binding sites. Briefly, cells are seeded into Greiner 384 well plates (15000 cells per well for TLR7, 20,000 for TLR8 and 25,000 for TLR9) and then treated with test compounds in DMSO to yield a final dose response concentration range of 0.05 nM-50 μM. After a 30 minute compound pre-treatment at room temperature, the cells are then stimulated with a TLR7 ligand (gardiquimod at a final concentration of 7.5 μM), TLR8 ligand (R848 at a final concentration of 15.9 μM) or TLR9 ligand (ODN2006 at final concentration of 5 nM) to activate NF-κB and AP-1 which induce the production of SEAP. After a 22 hour incubation at 37° C., 5% CO2, SEAP levels are determined with the addition of HEK-Bue™ Detection reagent (Invivogen), a cell culture medium that allows for detection of SEAP, according to manufacturer's specifications. The percent inhibition is determined as the % reduction in the HEK-Blue signal present in wells treated with agonist plus DMSO alone compared to wells treated with a known inhibitor.

[2] = target: human TLR8 (Homo sapiens (Human), UniProt Q9NR97); assay: TLR8 inhibition reporter assay (HEK-Blue, SEAP); details: HEK-Blue cells overexpressing human TLR8, R848 15.9 μM stimulation
Sequence of human TLR8 (Q9NR97 27-1041): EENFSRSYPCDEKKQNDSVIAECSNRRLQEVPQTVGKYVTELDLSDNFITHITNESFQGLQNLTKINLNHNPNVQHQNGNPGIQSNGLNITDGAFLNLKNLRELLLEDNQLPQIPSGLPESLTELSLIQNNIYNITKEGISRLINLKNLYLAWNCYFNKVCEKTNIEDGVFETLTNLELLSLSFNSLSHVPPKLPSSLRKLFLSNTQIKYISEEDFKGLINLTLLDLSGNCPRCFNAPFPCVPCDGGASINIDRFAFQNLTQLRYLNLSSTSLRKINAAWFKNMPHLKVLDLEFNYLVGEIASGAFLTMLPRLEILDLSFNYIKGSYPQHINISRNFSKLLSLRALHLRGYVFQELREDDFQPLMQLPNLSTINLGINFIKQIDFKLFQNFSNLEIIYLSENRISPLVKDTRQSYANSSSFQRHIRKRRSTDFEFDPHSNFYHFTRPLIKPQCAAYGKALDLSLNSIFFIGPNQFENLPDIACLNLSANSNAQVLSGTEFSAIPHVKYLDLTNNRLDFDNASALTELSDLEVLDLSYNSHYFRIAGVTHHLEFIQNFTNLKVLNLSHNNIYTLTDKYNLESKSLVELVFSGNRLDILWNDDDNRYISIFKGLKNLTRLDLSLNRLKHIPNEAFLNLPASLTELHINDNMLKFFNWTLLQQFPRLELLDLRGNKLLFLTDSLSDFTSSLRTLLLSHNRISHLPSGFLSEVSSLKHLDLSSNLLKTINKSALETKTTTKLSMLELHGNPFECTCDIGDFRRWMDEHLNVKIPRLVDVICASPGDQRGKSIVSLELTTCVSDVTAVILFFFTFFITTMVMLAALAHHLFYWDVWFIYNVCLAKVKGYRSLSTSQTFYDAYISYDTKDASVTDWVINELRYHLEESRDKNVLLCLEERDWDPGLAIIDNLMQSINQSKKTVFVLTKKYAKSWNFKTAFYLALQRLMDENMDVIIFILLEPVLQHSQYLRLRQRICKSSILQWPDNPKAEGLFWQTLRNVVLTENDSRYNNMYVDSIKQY
Method: as §1, §2

[3] = target: human TLR9 (Homo sapiens (Human), UniProt Q9NR96); assay: TLR9 inhibition reporter assay (HEK-Blue, SEAP); details: HEK-Blue cells overexpressing human TLR9, ODN2006 5 nM stimulation
Sequence of human TLR9 (Q9NR96 26-1032): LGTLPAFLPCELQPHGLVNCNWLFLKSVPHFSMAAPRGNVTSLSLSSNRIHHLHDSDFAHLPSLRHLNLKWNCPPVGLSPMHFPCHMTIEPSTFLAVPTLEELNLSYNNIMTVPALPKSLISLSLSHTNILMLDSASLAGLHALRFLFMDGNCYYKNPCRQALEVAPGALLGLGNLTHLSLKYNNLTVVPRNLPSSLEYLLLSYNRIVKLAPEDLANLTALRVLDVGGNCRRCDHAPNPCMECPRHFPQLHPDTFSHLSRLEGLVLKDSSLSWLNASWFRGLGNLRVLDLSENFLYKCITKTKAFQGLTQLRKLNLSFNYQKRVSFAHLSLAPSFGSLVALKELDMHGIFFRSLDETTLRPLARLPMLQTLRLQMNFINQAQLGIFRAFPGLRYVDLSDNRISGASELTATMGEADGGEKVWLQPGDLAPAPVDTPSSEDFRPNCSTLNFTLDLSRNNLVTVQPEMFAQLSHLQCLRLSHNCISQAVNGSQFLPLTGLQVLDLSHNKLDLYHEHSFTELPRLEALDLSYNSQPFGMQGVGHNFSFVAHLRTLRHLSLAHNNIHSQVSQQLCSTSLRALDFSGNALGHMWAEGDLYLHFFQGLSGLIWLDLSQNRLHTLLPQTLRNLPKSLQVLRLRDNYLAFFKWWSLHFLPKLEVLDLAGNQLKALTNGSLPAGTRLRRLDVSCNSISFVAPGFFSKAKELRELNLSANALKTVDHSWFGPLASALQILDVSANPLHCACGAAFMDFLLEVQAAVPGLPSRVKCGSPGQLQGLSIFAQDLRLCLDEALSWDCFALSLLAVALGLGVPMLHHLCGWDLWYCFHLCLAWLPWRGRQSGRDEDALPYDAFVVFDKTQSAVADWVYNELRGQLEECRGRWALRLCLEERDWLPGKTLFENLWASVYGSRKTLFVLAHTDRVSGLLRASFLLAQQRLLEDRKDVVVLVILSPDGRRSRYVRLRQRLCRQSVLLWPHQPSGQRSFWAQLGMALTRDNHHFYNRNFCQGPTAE
Method: as §1, §2

Sequence of human TLR7 (Q9NYK1 27-1049): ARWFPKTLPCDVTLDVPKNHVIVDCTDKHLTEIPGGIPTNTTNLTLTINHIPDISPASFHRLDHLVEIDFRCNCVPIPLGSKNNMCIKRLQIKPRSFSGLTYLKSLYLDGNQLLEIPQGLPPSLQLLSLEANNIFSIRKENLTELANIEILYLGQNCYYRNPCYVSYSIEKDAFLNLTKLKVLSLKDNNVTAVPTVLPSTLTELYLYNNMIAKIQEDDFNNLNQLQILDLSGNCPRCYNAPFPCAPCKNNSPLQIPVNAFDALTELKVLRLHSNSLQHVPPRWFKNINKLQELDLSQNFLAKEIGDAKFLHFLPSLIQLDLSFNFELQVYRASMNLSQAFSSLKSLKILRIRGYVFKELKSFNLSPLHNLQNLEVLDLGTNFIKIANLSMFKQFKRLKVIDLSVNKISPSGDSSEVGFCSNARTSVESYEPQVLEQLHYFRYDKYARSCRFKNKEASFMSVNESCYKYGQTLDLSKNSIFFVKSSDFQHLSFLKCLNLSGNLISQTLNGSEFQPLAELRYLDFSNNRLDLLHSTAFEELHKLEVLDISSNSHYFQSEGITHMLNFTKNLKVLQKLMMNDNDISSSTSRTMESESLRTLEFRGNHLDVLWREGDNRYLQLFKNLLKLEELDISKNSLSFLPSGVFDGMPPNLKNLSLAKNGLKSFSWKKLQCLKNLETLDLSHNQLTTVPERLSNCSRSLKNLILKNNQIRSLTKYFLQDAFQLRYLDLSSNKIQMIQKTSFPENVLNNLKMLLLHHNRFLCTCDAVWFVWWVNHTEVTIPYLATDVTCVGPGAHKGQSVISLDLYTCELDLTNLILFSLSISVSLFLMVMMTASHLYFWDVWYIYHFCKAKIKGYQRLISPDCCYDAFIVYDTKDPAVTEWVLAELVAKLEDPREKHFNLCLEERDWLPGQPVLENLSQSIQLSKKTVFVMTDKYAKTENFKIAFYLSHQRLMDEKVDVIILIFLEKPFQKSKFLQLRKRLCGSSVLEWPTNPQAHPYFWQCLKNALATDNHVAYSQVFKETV

IC50 [1]	IC50 [2]	IC50 [3]	Compound
49 nM	2.3 nM	2150 nM	Cc1cc(-c2[nH]c3ccc(-c4nc(C(=O)N5CC6CNCC6C5)co4)cc3c2C(C)C)ccn1 (stereo not drawn) [Example 172, (hexahydropyrrolo[3,4-c]pyrrol-2(1H)-yl)(2-(3-isopropyl-2-(2-methylpyridin-4-yl)-1H-indol-5-yl)oxazol-4-yl)methanone]
113 nM	13 nM	3410 nM	Cc1cc(-c2[nH]c3ccc(-c4nc(C(=O)NC5CCN(C(C)C)CC5)c(C)o4)cc3c2C(C)C)ccn1 [Example 191, 2-(3-isopropyl-2-(2-methylpyridin-4-yl)-1H-indol-5-yl)-N-(1-isopropylpiperidin-4-yl)-5-methyloxazole-4-carboxamide]
30 nM	2.4 nM	752 nM	Cc1cc(-c2[nH]c3ccc(-c4nnc([C@@H]5CCC[C@@H]5N)o4)cc3c2C(C)C)ccn1 [Example 267, (1S,2R)-2-(5-(3-isopropyl-2-(2-methylpyridin-4-yl)-1H-indol-5-yl)-1,3,4-oxadiazol-2-yl)cyclopentan-1-amine]
14 nM	1.9 nM	–	Cc1cc(-c2[nH]c3ccc(-c4ccc(NC(=O)C5CC(=O)N(C)C5)nc4)cc3c2C(C)C)ccn1 (stereo not drawn) [Example 332, N-(5-(3-isopropyl-2-(2-methylpyridin-4-yl)-1H-indol-5-yl)pyridin-2-yl)-1-methyl-5-oxopyrrolidine-3-carboxamide]
–	28 nM	2320 nM	Cc1cc(-c2[nH]c3ccc(-c4ccc(N5CCN(C(C)C)CC5)nc4)cc3c2C(C)C)ccn1 [Example 302, 3-isopropyl-5-(6-(4-isopropylpiperazin-1-yl)pyridin-3-yl)-2-(2-methylpyridin-4-yl)-1H-indole]
–	73 nM	4360 nM	COc1ccc(-c2[nH]c3ccc(-c4ccc(N5CCN(CC(C)C)CC5)nc4)cc3c2C(C)C)cc1OC [Example 391, 2-(3,4-dimethoxyphenyl)-5-(6-(4-isobutylpiperazin-1-yl)pyridin-3-yl)-3-isopropyl-1H-indole]
3.4 nM	–	647 nM	Cc1cc(-c2[nH]c3ccc(-c4nc5c(s4)CCNC5)cc3c2C(C)C)cc(C)n1 [Example 310, 2-(2-(2,6-dimethylpyridin-4-yl)-3-isopropyl-1H-indol-5-yl)-4,5,6,7-tetrahydrothiazolo[4,5-c]pyridine]
153 nM	422 nM	–	CC(C)c1c(-c2ccc3nccn3c2)[nH]c2ccc(-c3nnc([C@@H]4CCCNC4)o3)cc12 [Example 244, (R)-2-(2-(imidazo[1,2-a]pyridin-6-yl)-3-isopropyl-1H-indol-5-yl)-5-(piperidin-3-yl)-1,3,4-oxadiazole]
27 nM	7.5 nM	–	Cc1cc(-c2[nH]c3ccc(-c4nc(C(=O)NC5CCN(C(C)C)CC5)co4)cc3c2C(C)C)cc(C)n1 [Example 249, 2-(2-(2,6-dimethylpyridin-4-yl)-3-isopropyl-1H-indol-5-yl)-N-(1-isopropylpiperidin-4-yl)oxazole-4-carboxamide]
145 nM	–	2110 nM	COc1ccc(-c2[nH]c3ccc(-c4cnc(N5CCN(CC(C)C)CC5)n4C)cc3c2C(C)C)cc1OC [Example 433, 2-(3,4-dimethoxyphenyl)-5-(2-(4-isobutylpiperazin-1-yl)-1-methyl-1H-imidazol-5-yl)-3-isopropyl-1H-indole]

Second part, the compound before the results:

Compound	IC50 [1]	IC50 [2]	IC50 [3]
CC(C)c1c(-c2ccnc3[nH]ncc23)[nH]c2ccc(-c3nnc(CN(C)C(C)C)o3)cc12 [Example 154, N-((5-(3-isopropyl-2-(1H-pyrazolo[3,4-b]pyridin-4-yl)-1H-indol-5-yl)-1,3,4-oxadiazol-2-yl)methyl)-N-methylpropan-2-amine]	1410 nM	31 nM	> 50000 nM
COc1ccc(-c2[nH]c3ccc(-c4cccc(C(=O)N5CCN(C(=O)C6CCCO6)CC5)c4)cc3c2CC(F)(F)F)cc1OC (stereo not drawn) [Example 33, (4-(3-(2-(3,4-dimethoxyphenyl)-3-(2,2,2-trifluoroethyl)-1H-indol-5-yl)benzoyl)piperazin-1-yl)(tetrahydrofuran-2-yl)methanone]	1330 nM	53 nM	–
COc1ccc(-c2[nH]c3ccc(-c4ccnc(N5CCN(Cc6ccsc6)CC5)c4)cc3c2C(C)C)cc1OC [Example 423, 2-(3,4-dimethoxyphenyl)-3-isopropyl-5-(2-(4-(thiophen-3-ylmethyl)piperazin-1-yl)pyridin-4-yl)-1H-indole]	1400 nM	–	8760 nM
COc1ccc(-c2[nH]c3ccc(-c4cnc(Cl)n4C)cc3c2C(C)C)cc1OC [Example 437, 5-(2-chloro-1-methyl-1H-imidazol-5-yl)-2-(3,4-dimethoxyphenyl)-3-isopropyl-1H-indole]	896 nM	–	42100 nM
COc1ccc(-c2[nH]c3ccc(-c4ccnc(N5CCN(CCC(F)(F)F)CC5)c4)cc3c2C(C)C)cc1OC [Example 424, 2-(3,4-dimethoxyphenyl)-3-isopropyl-5-(2-(4-(3,3,3-trifluoropropyl)piperazin-1-yl)pyridin-4-yl)-1H-indole]	2590 nM	–	> 50000 nM
CCc1c(-c2ccc(OC)c(OC)c2)[nH]c2ccc(-c3cccc(CN4CCN(C)CC4)c3)cc12 [Example 368, 2-(3,4-dimethoxyphenyl)-3-ethyl-5-(3-((4-methylpiperazin-1-yl)methyl)phenyl)-1H-indole]	2530 nM	230 nM	–
COc1ccc(-c2[nH]c3ccc(-c4ccc(-c5cncc6ccccc56)cc4)cc3c2C(C)C)cc1OC [Example 407, 4-(4-(2-(3,4-dimethoxyphenyl)-3-isopropyl-1H-indol-5-yl)phenyl)isoquinoline]	–	> 50000 nM	290 nM
COc1ccc(-c2ccc3[nH]c(-c4ccnc5[nH]ncc45)c(C(C)C)c3c2)cn1 [Example 422, 4-(3-isopropyl-5-(6-methoxypyridin-3-yl)-1H-indol-2-yl)-1H-pyrazolo[3,4-b]pyridine]	4100 nM	662 nM	–
COc1ccc(-c2[nH]c3ccc(-c4cnc(N5CCN(Cc6ccsc6)CC5)nc4)cc3c2C(C)C)cc1OC [Example 429, 2-(3,4-dimethoxyphenyl)-3-isopropyl-5-(2-(4-(thiophen-3-ylmethyl)piperazin-1-yl)pyrimidin-5-yl)-1H-indole]	1280 nM	–	> 50000 nM
CC(C)c1c(-c2ccnc3[nH]ncc23)[nH]c2ccc(-c3ccc(C(C)N4CCOCC4)cc3)cc12 (stereo not drawn) [Example 372, 4-(1-(4-(3-isopropyl-2-(1H-pyrazolo[3,4-b]pyridin-4-yl)-1H-indol-5-yl)phenyl)ethyl)morpholine]	250 nM	13 nM	–
COc1ccc(-c2[nH]c3ccc(-c4cnc(N5CCN(Cc6cccn6C)CC5)nc4)cc3c2C(C)C)cc1OC [Example 430, 2-(3,4-dimethoxyphenyl)-3-isopropyl-5-(2-(4-((1-methyl-1H-pyrrol-2-yl)methyl)piperazin-1-yl)pyrimidin-5-yl)-1H-indole]	1340 nM	–	11900 nM
COc1ccc(-c2[nH]c3ccc(-c4ccnc(N5CCN(CCC(C)O)CC5)c4)cc3c2C(C)C)cc1OC (stereo not drawn) [Example 425, 4-(4-(4-(2-(3,4-dimethoxyphenyl)-3-isopropyl-1H-indol-5-yl)pyridin-2-yl)piperazin-1-yl)butan-2-ol]	1490 nM	–	7070 nM
